Measurements from PMC9674596, “Origin of acetylcholine antagonism in ELIC, a bacterial pentameric ligand-gated ion channel” (Communications Biology, 2022).
“Also recorded” adds a separate entry of the source.

Legend:
ELIC Y38W [1] = molecular target: ELIC Y38W (Dickeya chrysanthemi, UniProt P0C7B7, Y38W); assay: Two-electrode voltage clamp, Y38W mutant ELIC expressed in Xenopus laevis oocytes; type: cell-based, Erwinia chrysanthemi; conditions: Y38W
Experimental: (§1) Stage V-VI Xenopus laevis oocytes were isolated[72] and deflocculated enzymatically in ND96 buffer without Ca^2+ (96 mM NaCl, 2 mM KCl, 1 mM MgCl2, 2 mM pyruvate, 5 mM HEPES, pH 7.4), but supplemented with 1 mg/mL collagenase B and 1 mg/mL trypsin inhibitor, for 2 h at room temperature under constant stirring. The deflocculation buffer was then gradually removed by washing the oocytes in ND96 buffer (96 mM NaCl, 2 mM KCl, 1 mM MgCl2, 1 mM CaCl2, 2 mM pyruvate, 5 mM HEPES, pH 7.4) for several iterations. The oocytes were then allowed to stir for an additional hour at room temperature under constant stirring with the buffer being periodically replaced until clear. To obtain optimal receptor expression, individually selected and healthy oocytes were injected with 0.2 ng cRNA for wild-type ELIC and 5 ng cRNA for mutants. Subsequently, oocytes were incubated for one day at 16 °C in ND96^+ buffer (96 mM NaCl, 2 mM KCl, 1 mM MgCl2, 1 mM CaCl2, 2 mM pyruvate, and 5 mM HEPES at pH 7.6). After expression, injected oocytes were placed in a RC-1Z oocyte chamber (Harvard Apparatus; Hamden, CT) containing buffer (pH 7.4) composed of 150 mM NaCl, 0.5 mM BaCl2, 10 mM HEPES, and 1 mM dithiothreitol or 1 µM atropine if cysteamine, or ACh, was used in the experiment, respectively. The presence of the reducing agent, dithiothreitol, ensures that the sulfhydryl group of cysteamine remains reduced.
(§2) Once in the oocyte chamber, whole-cell currents were recorded using a two-electrode voltage-clamp apparatus (OC-725C oocyte clamp; Harvard Apparatus), with a buffer flow rate of 5–10 mL min^−1. Currents in response to various additions of cysteamine and/or ACh, were measured with the transmembrane voltage clamped at −60 mV. Dose response curves for each wild-type and mutant ELIC were acquired from at least five oocytes in two different batches.
(§3) For identifying the half maximal effective concentration (EC50) and apparent Hill coefficient (nH) of cysteamine, dose response curves were created by taking the magnitude of each cysteamine-activated peak current (I) and normalizing this value to the maximal peak current in the presence of excess agonist (Imax). The log (base 10) cysteamine concentration in molar was then plotted on the x-axis against the fractional response (I/Imax) on the y-axis. The data was fitted using nonlinear regression with a variable slope sigmoidal dose response (Eq. 1, below) in GraphPad Prism (v.8.0.0).1 y=1/1+10^nH^LogEC50−X
(§4) Individual EC50 and Hill coefficients were averaged for each oocyte to derive a mean ± standard deviation. For identifying a half maximal inhibitory concentration (IC50) and Hill coefficient of ACh, a concentration of cysteamine corresponding to its EC50 was used in the presence of increasing concentrations of ACh. Peak currents elicited from cysteamine with ACh (I) were normalized to the initial cysteamine peak current in the absence of ACh (Io). The log (base 10) ACh concentration was then plotted on the x-axis against the fractional response (I/Io) on the y-axis. Subsequent steps were the same as above for deriving a cysteamine EC50 and Hill coefficient. The individual IC50 and Hill coefficients were averaged for each oocyte to derive a mean ± one standard deviation. Lastly, to identify four normalized response values, cysteamine at the 10% maximal effective concentration (EC10), 20% maximal effective concentration (EC20), EC50 and 90% maximal effective concentration (EC90), was applied in the presence and absence of 25 mM ACh. The cysteamine-activated peak current with 25 mM ACh, was normalized to the cysteamine-activated peak current without ACh.

ELIC Y38W [2] = assay: as above; type: cell-based, Erwinia chrysanthemi; conditions: Y38W
Experimental: as §1, §2, §3, §4

ELIC A75D = molecular target: T1, ELIC A75D (Dickeya chrysanthemi, UniProt P0C7B7, A75D/INS163G); assay: Two-electrode voltage clamp, A75D mutant ELIC expressed in Xenopus laevis oocytes; type: cell-based, Erwinia chrysanthemi; conditions: A75D
T1 construct: expressed in transfected cells; host or cells: Xenopus laevis oocytes injected with cRNA from ELIC-pTLN

ELIC I79Y = molecular target: T2, ELIC I79Y (Dickeya chrysanthemi, UniProt P0C7B7, I79Y/INS163G); assay: Two-electrode voltage clamp, I79Y mutant ELIC expressed in Xenopus laevis oocytes; type: cell-based, Erwinia chrysanthemi
T2 construct: expressed in transfected cells; host or cells: Xenopus laevis oocytes injected with cRNA from ELIC-pTLN
Experimental: as §1, §2, §3
as §4, with “The cysteamine-activated peak current with 25 mM ACh, was normalized to the cysteamine-activated peak current without ACh.” left out

ELIC F133W = ELIC F133W (Dickeya chrysanthemi, UniProt P0C7B7, F133W); assay: cell-based; type: cell-based, Erwinia chrysanthemi; conditions: F133W
Experimental: as §1, §2, §3, §4

ELIC A75D/F133W = molecular target: T3, ELIC A75D/F133W (Dickeya chrysanthemi, UniProt P0C7B7, A75D/F133W/INS163G); assay: Two-electrode voltage clamp, A75D/F133W double mutant ELIC expressed in Xenopus laevis oocytes; type: cell-based, Erwinia chrysanthemi
T3 construct: expressed in transfected cells; host or cells: Xenopus laevis oocytes injected with cRNA; DNA construct synthesised by Twist Bioscience
Experimental: as §1, §2, §3, §4

[3] = molecular target: T4, ELIC L240A (L9′A) + A75D/F133W (Dickeya chrysanthemi, UniProt P0C7B7, A75D/F133W/L239A); assay: Two-electrode voltage clamp, L9′A + A75D/F133W triple mutant ELIC expressed in Xenopus laevis oocytes; type: cell-based, Erwinia chrysanthemi
T4 construct: expressed in transfected cells; host or cells: Xenopus laevis oocytes injected with cRNA
Experimental: as §1, §2, §3
Individual EC50 and Hill coefficients were averaged for each oocyte to derive a mean ± standard deviation. For identifying a half maximal inhibitory concentration (IC50) and Hill coefficient of ACh, a concentration of cysteamine corresponding to its EC50 was used in the presence of increasing concentrations of ACh. […]

wild-type ELIC = molecular target: T5, wild-type ELIC (Dickeya chrysanthemi, UniProt P0C7B7, INS163G); conditions: cited from earlier work
T5 construct: expressed in transfected cells; host or cells: Xenopus laevis oocytes injected with cRNA from ELIC-pTLN

[4] = cysteamine as agonist, read-out: Activation EC50
[5] = ACh 0.5 mM to 50 mM, followed by 5 mM cysteamine
[6] = read-out: Cysteamine concentration corresponding to EC90

NCCS [cysteamine]
Cysteamine concentration corresponding to EC10 (ELIC Y38W [1]): 0.1 mM
Cysteamine concentration corresponding to EC20 (ELIC Y38W [1]): 0.2 mM
Activation Hill coefficient (ELIC Y38W [1]; cysteamine as agonist): 1.4 ± 0.2
EC50 (ELIC Y38W [1]; [4]): 500 ± 100 µM
Peak current on application of ligand alone (ELIC Y38W [1]; [5]): robust peak current
EC90 (ELIC Y38W [1]; [6]): 2.6 mM
Change in EC50 for cysteamine compared to wild-type (ELIC Y38W [2]): unchanged
Cysteamine concentration corresponding to EC10 (ELIC A75D): 0.6 mM
Cysteamine concentration corresponding to EC20 (ELIC A75D): 0.9 mM
Increase in EC50 for cysteamine relative to wild-type (ELIC A75D): 3 fold
Activation Hill coefficient (ELIC A75D; cysteamine as agonist): 2.3 ± 0.5
EC50 (ELIC A75D; [4]): 1.6 ± 0.4 mM
Peak current on application of ligand alone (ELIC A75D; [5]): robust peak current
EC90 (ELIC A75D; [6]): 4.2 mM
Increase in EC50 for cysteamine relative to wild-type (ELIC I79Y): 24 fold
Peak current on application of ligand alone (ELIC I79Y; [5]): robust peak current
Activation Hill coefficient (ELIC I79Y; estimate, cysteamine application for 30 s, 1.5 mM to 100 mM): 2.2 ± 0.3
EC50 (ELIC I79Y; estimate, cysteamine application for 30 s, 1.5 mM to 100 mM, read-out: Activation EC50): 14 ± 1 mM
Cysteamine concentration corresponding to EC10 (ELIC F133W): 1.6 mM
Cysteamine concentration corresponding to EC20 (ELIC F133W): 2.3 mM
Increase in EC50 for cysteamine relative to wild-type (ELIC F133W): 7 fold
Activation Hill coefficient (ELIC F133W; cysteamine as agonist): 2.3 ± 0.3
EC50 (ELIC F133W; [4]): 4.3 ± 0.6 mM
Peak current on application of ligand alone (ELIC F133W; [5]): robust peak current
EC90 (ELIC F133W; [6]): 11.3 mM
Cysteamine concentration corresponding to EC10 (ELIC A75D/F133W): 3.9 mM
Cysteamine concentration corresponding to EC20 (ELIC A75D/F133W): 4.8 mM
Activation by amine (whole-cell response) (ELIC A75D/F133W; 25 mM amine, cysteamine at its EC50): still activated
Activation Hill coefficient (ELIC A75D/F133W; cysteamine as agonist): 3.8 ± 0.3
EC50 (ELIC A75D/F133W; [4]): 6.9 ± 0.7 mM
EC90 (ELIC A75D/F133W; [6]): 12.3 mM
Current on application of ligand alone ([3]; L9′A + A75D/F133W, 30 s applications of ACh 0.5 to 50 mM, then 5 mM cysteamine): robust peak current; also recorded: robust activation
Activation Hill coefficient ([3]; L240A (L9′A) + A75D/F133W, cysteamine as agonist): 3.7 ± 0.3
EC50 ([3]; L240A (L9′A) + A75D/F133W, cysteamine as agonist, read-out: Activation EC50): 4.3 ± 0.6 mM
Action on ELIC (wild-type ELIC): agonists
